We go through 1 molecule from article PMC11123692, “Sugar-Based Surfactants: Effects of Structural Features on the Physicochemical Properties of Sugar Esters and Their Comparison to Commercial Octyl Glycosides” (Molecules, 2024).

Series [1] in a line: Equilibrium surface tension, Wilhelmy plate method (CMC, γcmc, Amin and derived quantities). Type of series: physicochemical. Here is the method: CMCs are determined from the inflections in the plots of equilibrium surface tension against the logarithm of the concentration. For the interested reader, the Gibbs-free energy of micellization, ΔGmic, the Gibbs-free energy of adsorption, ΔGads, and the efficiency of surfactant adsorption pC20 were calculated based on their definitions, as presented in Table 2.
The surface activity reflects the amphiphiles’ adsorption behavior on the air–aqueous solution interface. The surface tension (γ) was obtained using the Wilhelmy plate method with a K100 Processor Tensiometer (KRUSS, Hamburg, Germany). Both the critical micellar concentration (CMC) and equilibrium surface tension at the CMC (γcmc) were derived from the typical plot of surface tension (γ) against the logarithm of concentration (Log C). The surface excess (Γmax) and minimal area per molecule at the air–aqueous solution interface (Amin) at different temperatures were calculated from the Gibbs adsorption equation [3, 46]:(2) Γmax=−1/2.303RT(dγ/dlogc) and (3) Amin=10^20/NAΓmax where R is the ideal gas constant, 8.31 J∙mol^−1∙K^−1; T is the measuring temperature, K; γ is the surface tension, N/m; c is the concentration, mol.L^−1; Amin is the minimal area per molecule, Å^2, and NA is Avogadro’s number, 6.022·10^23 mol^−1.
For each molecule, several solutions of a wide range of concentrations were prepared. Before measuring, each solution was finely homogenized with the help of a magnetic stirring bar. The stirring time was fixed at 30 min in all cases. […] Then, measurements were performed once for each concentration, at the solution preparation’s temperature, with an uncertainty of ±1 °C.

On the set-up of series [2]: method as in doi:10.1039/C4MD00122B. The following applies: ITC at 25 °C; cited from earlier work.
The conditions of series [3]: derived from the phase diagram of Sakya et al.; cited from earlier work.
For series [4] the following is noted: Wilhelmy plate method at 25 °C; cited from earlier work.
Series [5] is described as follows: Water solubility limit by visual examination (transparent/turbid). It counts as physicochemical. The following applies: for solubility: water, thermodynamic from solid, read-out: Solubility Limit (S/mM). From the text: Water solubility reflects the ability of a particular molecule to dissolve and its interaction with water. To characterize the water solubility of most amphiphile molecules, especially the ionic surfactants, the Krafft point (Tk) is often used, referring to the critical temperature above which micelles form or the melting point of the hydrated solid surfactant. Two general approaches were used to measure the Tks of the molecules investigated herein: (1) a visual examination of the dissolution phenomenon for binary molecule/water systems, and (2) a quantitative measurement by using differential scanning calorimetry (DSC) analysis. The visual observation procedure is detailed below. […] Consequently, molecules can be classified into two major types: those soluble in water at RT and others insoluble at RT, with the solubility limit being called S (expressed in mM). The aspect of the sample, either transparent or turbid, is determined by direct visual examination. Tk determination with DSC is particularly applicable in the case of molecules insoluble at RT, for which a concentrated binary molecule/water mixture with a mass fraction of 20% of each molecule (C >> CMC in most cases) was prepared at 65 °C under stirring for 30 min to obtain a homogeneous system. These pre-homogenized aqueous systems were cooled and conserved in a refrigerator at 4 °C for a suitable period (>7 days), during which equilibrated hydrated crystals formed and precipitated. Then, for each molecule, about a 200–400 mg crystal sample was taken and put into the calorimeter cell. The first equilibrium phase was programmed at 4 °C for 1 h, followed by a slow heating stage from 4 °C to 65 °C at a rate of 0.5 °C/min. Tk was determined based on the location of the endothermic peak on the DSC curve, if any. All agitations were performed using a standard magnetic hotplate stirrer, MR 3001K (Heidolph Instruments, Schwabach, Germany). DSC curves were obtained from a commercial µDSC7 evo calorimeter (SETARAM Instrumentation, Caluire-et-Cuire, France). Tks are reported as the averages of at least two measurements as well as their standard deviations.

Series [6] is described as follows: Precipitation on cooling previously heated 50 mM aqueous solutions. Type of series: physicochemical. The note with it: 50 mM in water. Here is the method:
For commercial alkyl glucosides, the Tk decreases in the following sequence: C8αGlc > C8βGal >> C8βGlc ≈ C8αGal. […] The obtained Tk for C8αGlc is around 40 °C in accordance with previously published values. However, as determined by the same experimental protocol, the Tk for C8βGal is about 29 °C, much lower than 42 °C derived from the phase diagram reported by Sakya et al. A possible explanation is that Sakya et al. synthesized and purified C8βGal by themselves, whereas we carried our measurements on commercially purchased C8βGal. […] For this reason, we assume that many researchers have been able to investigate their aqueous solutions at 25 °C, as mentioned in the introduction. In addition, when cooling the previously heated solutions with the same molecular concentration of 50 mM, we noted that C8αGlc precipitated much faster than C8βGal. […] This may, to some extent, be explained by a more favorable crystal structure for C8αGlc than C8βGal. With regard to C8αGal, which is presented in commercial samples as a highly viscous liquid, we expect it to have the weakest crystal structure and a very low Tk value. However, our experimental methods cannot give its exact Tk. […]

In brackets after ≈: the same amount, converted by molar mass. Several values for one entry are separate records, joined by “and”; a condition that tells them apart may be missing. Equal values may be shown once. Read-outs that look alike come from different tables or passages of the source.

For the molecule `CCCCCCCCO[C@@H]1O[C@H](CO)[C@H](O)[C@H](O)[C@H]1O` [Molecule C8βGal, octyl β-D-galactopyranoside, reference compound], in series [1] (T = 40 °C), the C20 was 3.2 mM, the pC20 is listed as 2.5, the ΔGads is -7.1 kcal/mol and the ΔGmic was -4.4 kcal/mol. Moreover, in series [1] (T = 40 °C (T > Tk)), the CMC was 20 mM and 20 ± 1 mM; the γcmc was 28.5 mN/m and 28.5 ± 0.5 mN/m. Further, in series [1] (T = 40 °C, from Gibbs adsorption equation), the Amin stood at 46.3 ± 1.7 Å^2/molecule. For the same molecule, in series [2], the CMC is reported as 31.7 ± 0.7 mM. Moreover, in series [3], the Tk was 42 °C. In series [4], the CMC is recorded as 16 mM and the γcmc was 30.5 mN/m. Further, in series [5] (20 mM in water at room temperature), the aspect of solution entry is recorded as “nearly transparent”. In addition, in series [5] (at RT), the solubility was in the range of 10 to 20 mM (≈ 2920 to 5850 µg/mL). Also, the solubility in series [5] (at T > Tk) was more than 100 mM. In addition, in series [6], the “precipitation when cooling the previously heated solution” value is reported as “no change was observed over one month”.
